In article PMC10994559 (PLOS Neglected Tropical Diseases, 2024):
“And” between values parts separate entries of the source, which are not always exact repeats. Identical values can stand only once. “Also recorded” adds a separate entry of the source. Like-named read-outs stand apart in the source and are kept apart here.

How the values were obtained:
[1] = system: intracellular L. infantum amastigotes; test: Parasite rescue assay (intramacrophage, J774 infected with L. infantum); type: cell-based, Leishmania infantum
[2] = system: L. major promastigotes; test: L. major promastigote viability, resazurin reduction; type: cell-based, Leishmania major; conditions: Leishmania major; for EC50: dose response, triplicate
Description: The infectivity of the parasites was boosted by passaging in Balb/c mice and culturing the infected lymph nodes after six weeks. L. infantum (MHOM / BR / 76 / M4192) parasite was passaged in the same media formulation with 0.5% urine.

[3] = system: E. histolytica; test: E. histolytica viability, ATP luminescence (Cell titer glo); type: cell-based, Entamoeba histolytica; conditions: Entamoeba histolytica, 48 h
Summary of the method: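 E. histolytica strain B2-5 at 2.5x10^4 cells/ml was exposed to compound for 48 h at 37 °C under anaerobic conditions, with viability read as ATP luminescence (CellTiter-Glo). The primary screen used 25 μM in triplicate, and follow-up potency runs used 9–16-point ranges spanning 0.01–100 μM.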

[4] = system: Plasmodium berghei ANKA; parameters: method as in PMID 35749989; conditions: cited from earlier work
[5] = system: T. brucei brucei BSF; test: T. brucei BSF viability, resazurin reduction; type: cell-based, Trypanosoma brucei brucei; conditions: Trypanosoma brucei
[6] = system: T. brucei 2T1 RNAi lines; test: Dose response after targeted stem-loop RNAi knockdown; type: cell-based, Trypanosoma brucei
Method: Selected genes with the high reads were validated by individual RNAi targeting. Briefly, gene-specific RNAi fragments of 400–600 bp were amplified with PCR primers designed with RNAit tool (S1 Table) and cloned into pRPa^iSL to generate stem-loop, ‘hairpin’ dsRNA to induce RNAi knockdown. The AscI linearized plasmid was transfected into 2T1 cells and positive colonies were selected with hygromycin (2.5 μg/ml). Positive, puromycin sensitive clones were analysed by PHT-39 dose response analysis after 24 h tetracycline induction and compared to uninduced controls and parental lines.

[7] = system: human hepatocyte carcinoma HepG2 cells; test: Cytotoxicity assay HepG2, resazurin reduction; type: cell-based
Method: Mammalian cell lines (J774 and HepG2) were passaged in RPMI media supplemented with MEM, Pen-Strep (1%) and 10% FCS. Cultures were kept at 37°C incubator with 5% CO2 in filter-cap flasks.
Murine macrophage cells (J774) and human hepatocyte carcinoma HepG2 cells were seeded at 0.5x10^5 cell/well in 384 well plates in triplicate, exposed to serial dilution of compounds, dispensed using an Echo 650 acoustic dispenser (Labcyte). After incubation for 72 h at 37°C, 5% CO2, cell viability was determined using fluorescence resazurin reduction assay (λEx: 550 nm; λEm: 590 nm).

[8] = Leishmania infantum, J774, read-out: EC50 L. infantum rescue assay, intramacrophage (J774), 18 concentrations
[9] = 24 h tetracycline induction vs uninduced

Row | SMILES | EC50 [1, 8] [nM] | viability at 25 µM ([1]; Leishmania infantum, J774, read-out: Residual viability, intracellular L. infantum amastigote (25 µM)) [%] | EC50 ([1]; read-out: EC50 L. infantum rescue assay, intramacrophage (J774), 18 concentrations) | EC50 [2] [nM] | viability at 2.5 µM ([3]; read-out: Residual viability, E.histolytica (2.5 µM)) [%] | viability at 25 µM ([3]; read-out: Residual viability, E.histolytica (25 µM)) [%] | Parasitemia and host survival, P. berghei ANKA infection model [4] | viability at 2.5 µM ([5]; 72 h, read-out: Residual viability, T.brucei (2.5 µM), BSF, 2.5 µM, 72 h) [%] | viability at 25 µM ([5]; 72 h, read-out: Residual viability, T.brucei (25 µM), BSF, 25 µM, 72 h) [%] | EC50 ([5]; read-out: EC50 T. brucei BSF, dose response, triplicate, ± SD (Table 2) / ± SE (S3 Table)) [nM] | viability at 25 µM ([1]; Leishmania infantum, J774, rescue assay in J774, 25 µM, read-out: Residual viability, intracellular L. infantum amastigote (25 µM)) [%] | EC50 ([1]; read-out: EC50 L. infantum rescue assay, intramacrophage (J774), 18 concentrations, listed as PH-39) [nM] | Residual viability, intracellular L. infantum amastigote (25 µM) ([1]; rescue assay in J774, 25 µM, 25 µM) [%] | Sensitivity shift after RNAi of HSP104 homolog (ClpB1) Tb927.2.5980 [6] | Sensitivity shift after RNAi of nicotinamidase paralogs Tb927.9.3970 and Tb927.9.4040 [6] | EC50 shift after RNAi of miltefosine transporter Tb927.11.3350 [6, 9] | Sensitivity shift after knockdown of ESAG5 [6, 9] | viability at 25 µM ([2]; 72 h, read-out: Residual viability, L.major promastigote (25 µM)) [%] | Selectivity ([7]; HepG2 cytotoxicity vs intramacrophage L. infantum) | EC50 ([7]; Homo sapiens, HepG2, 72 h, cytotoxicity, 72 h, read-out: EC50 (CT50) HepG2) [nM]
1 | C[C@@H]1[C@H](O)[C@@H](C)/C=C/C=C/C=C/C=C/C=C/C=C/C=C/[C@H](O[C@@H]2O[C@H](C)[C@@H](O)[C@H](N)[C@@H]2O)C[C@@H]2O[C@](O)(C[C@@H](O)C[C@@H](O)[C@H](O)CC[C@@H](O)C[C@@H](O)CC(=O)O[C@H]1C)C[C@H](O)[C@H]2C(=O)O [AmB, amphotericin B, reference compound] | 600 | 15.4 ± 6.9 | 700 nM and 660 nM | 200 |  |  |  |  |  |  |  |  |  |  |  |  |  |  |  | 
2 | CC[C@@H](C)[C@H](c1nc2ccccc2n1Cc1cn(-c2ccc(C(F)(F)F)cc2)nn1)N1C(=O)c2ccccc2C1=O [PHT-39] | 1200 ± 3200 |  |  | 5900 ± 1800 | 81.6 ± 12.6 | 44.5 ± 9.9 | considerable decrease in parasitemia and significantly extended host survival | 64.9 ± 7.25 | 2.85 ± 2.88 | 3900 ± 1700 | 16.3 | 1210 ± 3200 | 16.34±4.67 | did not elicit a significant PHT-39 sensitivity shift; also recorded: did not determine a significant sensitivity shift | did not elicit a significant PHT-39 sensitivity shift; also recorded: did not determine a significant sensitivity shift | mild but significant EC50 increase | very modest but significant sensitivity shift | 16.6 ± 1.6 | over 90 fold | > 100000
